According to US12269826B1, “7H-pyrido[4′,3′:4,5]pyrrolo[2,3-c][1,7]naphthyridine compounds as CK2 inhibitors” (KING FAISAL UNIVERSITY, priority 2023, dated 2025):

Key:
PC3 (prostate) = assay: In vitro cytotoxic activity (MTT) assay, PC3; type: cell-based; conditions: Homo sapiens; cells exposed for 96 hours; 50% inhibition of cell proliferation; read-out: Cytotoxicity activity IC50, PC3 (prostate)
Method: (§1) Compounds 1-16 were screened for their in vitro cytotoxic activity utilizing a 3-(4,5-dimethyl-thiazol-2-yl)-2,5-diphenyltetrazolium bromide (MTT) assay against selected cancer human cell lines consisting of PC3 (prostate), HCT116 (colon), A375 (melanoma), H1299 (lung), MIAPaCa-2 (pancreas), HL60 (leukemia), MCF7 (breast), MDA-MB-231 (breast) (T. Mosmann, J. Immunol. Meth., 1983, 65, 55-63). The cells were cultured at 37° C. in RMPI1640 medium supplemented with 10% fetal bovine serum, 50 IU/mL penicillin, and 50 μg/mL streptomycin in a 5% CO2 incubator. All cells were sub-cultured 3 times/week by trypsinisation. Viable cells were seeded and allowed to adhere for 12 h before a test drug was added in 96-well plates at an initial density of 1.0×10^5 cells/mL. Tumor cell lines were separately exposed to various concentrations of the tested compounds followed by incubation at a temperature of 37° C. during 96 hours inside a medium of fresh RMPI 1640. Cells were subsequently incubated at 37° C. using MTT at 0.5 mg/mL during 4 hours. After removal of supernatant, formazan crystals were dissolved in isopropanol and the optical density was measured at 570 nm. CX-4945 was used as a positive control.

HL60 (leukemia) = assay: In vitro cytotoxic activity (MTT) assay, HL60; type: cell-based; conditions: Homo sapiens, HL-60; cells exposed for 96 hours; 50% inhibition of cell proliferation; read-out: Cytotoxicity activity IC50, HL60 (leukemia)
Method: as §1

[1] = target: T1, recombinant human CK2 (RRββ-holoenzyme) (Homo sapiens, UniProt P68400); assay: CK2 Kinase Assay (33P-ATP, filter plate); type: biochemical; conditions: final ATP concentration 15 μM; 10 min at 30° C.; read-out: protein kinase CK2 IC50
T1 construct: purchased Millipore
Method: CK2 Kinase Assay was conducted using the protocol as described in Pierre F. et al; J. Med. Chem. 2011, 54, 635-654. The tested compounds in aqueous solution were added at a volume of 10 μL to a reaction mixture comprising 10 μL of assay dilution buffer (ADB; 20 mM MOPS, pH 7.2, 25 mM β-glycerol phosphate, 5 mM EGTA, 1 mM sodium orthovanadate, and 1 mM dithiothreitol), 10 μL of substrate peptide (RRRDDDSDDD, dissolved in ADB at a concentration of 1 mM), 10 μL of recombinant human CK2 (RRββ-holoenzyme, 25 ng dissolved in ADB; Millipore). Reactions were initiated by the addition of 10 μL of ATP solution (90% 75 mMMgCl2, 75 µM ATP (final ATP concentration: 15 μM) dissolved in ADB; 10% [γ-33P] ATP (stock 1 mCi/100 μL; 3000 Ci/mmol (Perkin-Elmer) and maintained for 10 min at 30° C. The reactions were quenched with 100 μL of 0.75% phosphoric acid and then transferred to and filtered through a phosphor cellulose filter plate (Millipore). After washing each well five times with 0.75% phosphoric acid, the plate was dried under vacuum for 5 min and, following the addition of 15 μL of scintillation fluid to each well, the residual radioactivity was measured using a Wallac luminescence counter. The IC50 values were derived from eight concentrations of test inhibitors.

HCT116 (colon) = assay: In vitro cytotoxic activity (MTT) assay, HCT116; type: cell-based; conditions: Homo sapiens, HCT-116; cells exposed for 96 hours; 50% inhibition of cell proliferation; read-out: Cytotoxicity activity IC50, HCT116 (colon)
Method: as §1

A375 (melanoma) = assay: In vitro cytotoxic activity (MTT) assay, A375; type: cell-based; conditions: Homo sapiens, A-375; cells exposed for 96 hours; 50% inhibition of cell proliferation; read-out: Cytotoxicity activity IC50, A375 (melanoma)
Method: as §1

MDA-MB-231 (breast) = assay: In vitro cytotoxic activity (MTT) assay, MDA-MB-231; type: cell-based; conditions: Homo sapiens, cells exposed for 96 hours, 50% inhibition of cell proliferation, read-out: Cytotoxicity activity IC50, MDA-MB-231 (breast)
Method: as §1

H1299 (lung) = assay: In vitro cytotoxic activity (MTT) assay, H1299; type: cell-based; conditions: Homo sapiens, NCI-H1299; cells exposed for 96 hours; 50% inhibition of cell proliferation; read-out: Cytotoxicity activity IC50, H1299 (lung)
Method: as §1

MIAPaCa-2 (pancreas) = assay: In vitro cytotoxic activity (MTT) assay, MIAPaCa-2; type: cell-based; conditions: Homo sapiens, MIA PaCa-2; cells exposed for 96 hours; 50% inhibition of cell proliferation; read-out: Cytotoxicity activity IC50, MIAPaCa-2 (pancreas)
Method: as §1

MCF7 (breast) = assay: In vitro cytotoxic activity (MTT) assay, MCF7; type: cell-based; conditions: Homo sapiens, cells exposed for 96 hours, 50% inhibition of cell proliferation, read-out: Cytotoxicity activity IC50, MCF7 (breast)
Method: as §1

T1 sequence (P68400 whole entry): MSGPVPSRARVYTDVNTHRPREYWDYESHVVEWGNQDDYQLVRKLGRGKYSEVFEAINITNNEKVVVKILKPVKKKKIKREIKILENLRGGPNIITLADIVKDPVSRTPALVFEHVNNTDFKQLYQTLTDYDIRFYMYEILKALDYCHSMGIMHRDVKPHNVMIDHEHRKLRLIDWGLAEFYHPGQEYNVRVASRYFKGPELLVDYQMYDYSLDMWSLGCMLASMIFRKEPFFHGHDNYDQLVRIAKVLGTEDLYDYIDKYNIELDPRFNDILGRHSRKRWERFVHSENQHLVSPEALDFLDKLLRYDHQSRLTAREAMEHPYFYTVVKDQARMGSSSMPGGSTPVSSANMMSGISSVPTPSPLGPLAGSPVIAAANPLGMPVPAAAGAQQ
T1 sequence (P67870 whole entry partner): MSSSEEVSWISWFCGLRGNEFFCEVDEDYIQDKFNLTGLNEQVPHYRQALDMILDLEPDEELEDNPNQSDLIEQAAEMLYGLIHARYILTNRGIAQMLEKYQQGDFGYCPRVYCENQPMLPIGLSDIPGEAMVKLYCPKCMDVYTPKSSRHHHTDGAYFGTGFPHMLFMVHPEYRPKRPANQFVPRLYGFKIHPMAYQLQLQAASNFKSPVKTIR

## Clc1cccc(Nc2nc3cnccc3c3c2[nH]c2cnccc23)c1 [Compound 1, N-(3-chlorophenyl)-7H-pyrido[4′,3′:4,5]pyrrolo[2,3-c][1,7]naphthyridin-6-amine]
PC3 (prostate)
  IC50: 0.9 µM
HL60 (leukemia)
  IC50: 3.6 µM
[1]
  IC50: 0.295 µM
HCT116 (colon)
  IC50: 1.1 µM
A375 (melanoma)
  IC50: 4.2 µM
MDA-MB-231 (breast)
  IC50: 4.1 µM
H1299 (lung)
  IC50: 1.6 µM
MIAPaCa-2 (pancreas)
  IC50: 2.8 µM
MCF7 (breast)
  IC50: 4.9 µM
